Laboratory results from ChEMBL document CHEMBL1201862, “PubChem BioAssay data set” (2004).
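Cultured in 96-well plates, cells were exposed to test compound for 48 hours across five concentrations. GI50 is the concentration that inhibits growth by half.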 The source made the active and inactive calls. Cut-off read from the data, not from the text of the source: active = GI50 up to about 1.1 µM and inactive = higher.

Columns and labels:
Assay in all cases: NCI-60 cell line screen, 48 h
DU-145 = test system: DU-145
OVCAR-8 = test system: OVCAR-8
NCI-H522 = test system: NCI-H522
DMS-273 = test system: DMS-273
M19-MEL = test system: M19-MEL
HOP-62 = test system: HOP-62
OVCAR-3 = test system: OVCAR-3
U-251 = test system: U-251
SK-MEL-2 = test system: SK-MEL-2
786-0 = test system: 786-0
OVCAR-5 = test system: OVCAR-5
SK-MEL-28 = test system: SK-MEL-28
SF-268 = test system: SF-268
A498 = test system: A498
Malme-3M = test system: Malme-3M
NCI-H226 = test system: NCI-H226
COLO 205 = test system: COLO 205
PC-3 = test system: PC-3
SR = test system: SR
A549 = test system: A549
KM12 = test system: KM12
CCRF-CEM = test system: CCRF-CEM
TK-10 = test system: TK-10
RPMI-8226 = test system: RPMI-8226
UO-31 = test system: UO-31
NCI-H23 = test system: NCI-H23
BT-549 = test system: BT-549
RXF 393 = test system: RXF 393
SF-295 = test system: SF-295
SF-539 = test system: SF-539
HCT-116 = test system: HCT-116
HOP-18 = test system: HOP-18
MDA-N = test system: MDA-N
HOP-92 = test system: HOP-92
SNB-19 = test system: SNB-19
MOLT-4 = test system: MOLT-4
HL-60 = test system: HL-60
K562 = test system: K562
CAKI-1 = test system: CAKI-1
UACC-62 = test system: UACC-62
ACHN = test system: ACHN
M14 = test system: M14
T47D = test system: T47D
SNB-78 = test system: SNB-78
MDA-MB-231 = test system: MDA-MB-231
IGROV-1 = test system: IGROV-1
RXF 631 = test system: RXF 631
SW-620 = test system: SW-620
MCF7 = test system: MCF7
LXFL 529 = test system: LXFL 529
HCC 2998 = test system: HCC 2998
SK-MEL-5 = test system: SK-MEL-5
DLD-1 = test system: DLD-1
EKVX = test system: EKVX
DMS-114 = test system: DMS-114
KM-20L2 = test system: KM-20L2
NCI-H460 = test system: NCI-H460
SN12C = test system: SN12C
UACC-257 = test system: UACC-257
HT-29 = test system: HT-29
SNB-75 = test system: SNB-75
MDA-MB-435 = test system: MDA-MB-435
OVCAR-4 = test system: OVCAR-4
LOX IMVI = test system: LOX IMVI
XF498 = test system: XF498
SK-OV-3 = test system: SK-OV-3

CCCC/C=C1\CCC(CN2CCOCC2)C1=O (stereo unspecified)
GI50 (DU-145): 16.9 µM (inactive) | GI50 (OVCAR-8): 10 µM (inactive) | GI50 (NCI-H522): 0.809 µM (active) | GI50 (DMS-273): 3.74 µM (inactive) | GI50 (M19-MEL): 4.02 µM (inactive) | GI50 (HOP-62): 15.7 µM (inactive) | GI50 (OVCAR-3): 5.32 µM (inactive) | GI50 (U-251): 3.53 µM (inactive) | GI50 (SK-MEL-2): 10.1 µM (inactive) | GI50 (786-0): 1.8 µM (inactive) | GI50 (OVCAR-5): 17.4 µM (inactive) | GI50 (SK-MEL-28): 3.24 µM (inactive) | GI50 (SF-268): 11.5 µM (inactive) | GI50 (A498): 14.1 µM (inactive) | GI50 (Malme-3M): 2.19 µM (inactive) | GI50 (NCI-H226): 8.63 µM (inactive) | GI50 (COLO 205): 2.97 µM (inactive) | GI50 (PC-3): 13.2 µM (inactive) | GI50 (SR): 1.73 µM (inactive) | GI50 (A549): 20.4 µM (inactive) | GI50 (KM12): 1.8 µM (inactive) | GI50 (CCRF-CEM): 0.724 µM (active) | GI50 (TK-10): 9.31 µM (inactive) | GI50 (RPMI-8226): 0.15 µM (active) | GI50 (UO-31): 4.22 µM (inactive) | GI50 (NCI-H23): 5.7 µM (inactive) | GI50 (BT-549): 3.56 µM (inactive) | GI50 (RXF 393): 1.51 µM (inactive) | GI50 (SF-295): 16.3 µM (inactive) | GI50 (SF-539): 7.73 µM (inactive) | GI50 (HCT-116): 2.04 µM (inactive) | GI50 (HOP-18): 0.653 µM (active) | GI50 (MDA-N): 10.7 µM (inactive) | GI50 (HOP-92): 1.83 µM (inactive) | GI50 (SNB-19): 15.8 µM (inactive) | GI50 (MOLT-4): 2.02 µM (inactive) | GI50 (HL-60): 1.57 µM (inactive) | GI50 (K562): 1.19 µM (inactive) | GI50 (CAKI-1): 1.92 µM (inactive) | GI50 (UACC-62): 6.4 µM (inactive) | GI50 (ACHN): 3.59 µM (inactive) | GI50 (M14): 3.32 µM (inactive) | GI50 (T47D): 5.19 µM (inactive) | GI50 (SNB-78): 8.39 µM (inactive) | GI50 (MDA-MB-231): 3.78 µM (inactive) | GI50 (IGROV-1): 14.3 µM (inactive) | GI50 (RXF 631): 14.9 µM (inactive) | GI50 (SW-620): 2.1 µM (inactive) | GI50 (MCF7): 1.53 µM (inactive) | GI50 (LXFL 529): 1.43 µM (inactive) | GI50 (HCC 2998): 9.08 µM (inactive) | GI50 (SK-MEL-5): 12 µM (inactive) | GI50 (DLD-1): 1.75 µM (inactive) | GI50 (EKVX): 11.2 µM (inactive) | GI50 (DMS-114): 4.86 µM (inactive) | GI50 (KM-20L2): 4.89 µM (inactive) | GI50 (NCI-H460): 18.2 µM (inactive) | GI50 (SN12C): 4.57 µM (inactive) | GI50 (UACC-257): 5.28 µM (inactive) | GI50 (HT-29): 3.48 µM (inactive) | GI50 (SNB-75): 2.27 µM (inactive) | GI50 (MDA-MB-435): 10.7 µM (inactive) | GI50 (OVCAR-4): 11.7 µM (inactive) | GI50 (LOX IMVI): 1.24 µM (inactive) | GI50 (XF498): 1.64 µM (inactive) | GI50 (SK-OV-3): 17.1 µM (inactive)
